# Paper PMC11770318, “Isolation and characterization of a β-galactosidase from Lactobacillus helveticus for industrial processing” (JDS Communications, 2024)
# Key:
# [1] = biological target: T1, β-galactosidase (LacLM) from Lactobacillus helveticus OSU-PECh-4A (Lactobacillus helveticus, UniProt Q7WTB3+Q7WTB4); test: inhibition of lactose hydrolysis; assay type: biochemical; settings: end product; substrate lactose; 50 mM sodium phosphate pH 7.0, 37°C
# T1 construct: gene lacL; native, purified from Lb. helveticus OSU-PECh-4A by diafiltration and size-exclusion chromatography; GH2 heterodimer, 110 kDa (74 + 36 kDa subunits); 13 peptides identified by LC-MS; no tag
# [2] = biological target: T1, β-galactosidase (LacLM) from Lactobacillus helveticus OSU-PECh-4A; test: inhibition of oNPG hydrolysis; assay type: biochemical; settings: end product; substrate oNPG; 50 mM sodium phosphate pH 7.0, 37°C; allosteric (authors' interpretation)
# T1 sequence (Q7WTB4 whole entry): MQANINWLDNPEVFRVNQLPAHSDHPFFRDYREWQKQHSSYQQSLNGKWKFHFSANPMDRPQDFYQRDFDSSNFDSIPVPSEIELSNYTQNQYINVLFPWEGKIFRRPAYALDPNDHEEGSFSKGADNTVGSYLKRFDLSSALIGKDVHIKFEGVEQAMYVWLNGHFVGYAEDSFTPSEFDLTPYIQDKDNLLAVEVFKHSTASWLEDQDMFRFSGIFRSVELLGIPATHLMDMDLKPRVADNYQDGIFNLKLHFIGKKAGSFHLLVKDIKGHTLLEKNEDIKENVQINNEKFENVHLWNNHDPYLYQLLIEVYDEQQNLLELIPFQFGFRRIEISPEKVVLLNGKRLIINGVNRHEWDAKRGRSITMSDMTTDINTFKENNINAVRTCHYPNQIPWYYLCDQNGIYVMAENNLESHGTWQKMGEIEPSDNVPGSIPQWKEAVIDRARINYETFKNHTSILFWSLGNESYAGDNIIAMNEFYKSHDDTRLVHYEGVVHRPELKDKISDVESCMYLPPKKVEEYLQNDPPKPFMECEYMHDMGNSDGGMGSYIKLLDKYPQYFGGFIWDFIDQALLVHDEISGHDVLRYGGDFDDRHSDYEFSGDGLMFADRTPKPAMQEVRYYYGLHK
# T1 sequence (Q7WTB3 whole entry): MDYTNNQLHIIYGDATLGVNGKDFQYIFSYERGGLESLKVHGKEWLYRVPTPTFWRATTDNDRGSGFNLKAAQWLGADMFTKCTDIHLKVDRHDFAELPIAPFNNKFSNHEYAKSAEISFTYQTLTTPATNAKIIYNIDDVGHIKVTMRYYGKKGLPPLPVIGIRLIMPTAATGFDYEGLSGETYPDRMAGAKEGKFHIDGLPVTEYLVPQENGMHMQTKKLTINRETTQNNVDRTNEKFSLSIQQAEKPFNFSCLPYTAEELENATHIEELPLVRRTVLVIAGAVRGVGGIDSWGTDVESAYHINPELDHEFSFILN
% loss of initial activity at 1 mM [1] [%],% decrease of activity below 50 mM [2] [%],Compound
30,–,OC[C@H]1OC(O)[C@H](O)[C@@H](O)[C@H]1O (stereo partly drawn) [D-galactose]
–,30,OC[C@H]1OC(O)[C@H](O)[C@@H](O)[C@@H]1O (stereo partly drawn) [D-glucose]
